Test results: article PMC6829864, “Determination of Ligand Profiles for Pseudomonas aeruginosa Solute Binding Proteins” (International Journal of Molecular Sciences, 2019)
Where “and” joins values, the source holds several entries; their conditions need not be identical. Equal values may be shown once. Values belong to the compound of their own block, whether it stands above or below them. Where a SMILES comes first, the peptide text is derived from it.

Columns and labels:
[1] = target: T1, PA2592 (Pseudomonas aeruginosa, UniProt Q9I0P5); assay: biochemical; assay type: binding
T1 sequence (Q9I0P5 20-367): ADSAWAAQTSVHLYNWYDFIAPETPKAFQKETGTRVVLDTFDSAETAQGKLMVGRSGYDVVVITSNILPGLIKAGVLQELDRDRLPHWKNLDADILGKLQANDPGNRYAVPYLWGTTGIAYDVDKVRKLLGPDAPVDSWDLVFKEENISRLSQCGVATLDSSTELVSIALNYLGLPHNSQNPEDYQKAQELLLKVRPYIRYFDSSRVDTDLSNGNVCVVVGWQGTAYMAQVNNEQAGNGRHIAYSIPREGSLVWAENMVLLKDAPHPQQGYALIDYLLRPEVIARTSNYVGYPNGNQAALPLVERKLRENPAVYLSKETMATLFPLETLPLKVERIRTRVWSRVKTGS

[2] = target: T1, PA2592; assay: DSF thermal shift ligand screening, PA2592; assay type: binding, Pseudomonas aeruginosa PAO1; conditions: arrays PM2A, PM3B, PM5
[3] = system: Pseudomonas aeruginosa PAO1; assay type: cell-based; conditions: chemoeffector 1 mM; for Chemotaxis: capillary assay, 30 min
[4] = target: T2, PA4497 (dppA2) (Pseudomonas aeruginosa, UniProt Q9HVS4); assay type: binding; conditions: arrays PM3B, PM6, PM7, PM8
T2 sequence (Q9HVS4 25-532): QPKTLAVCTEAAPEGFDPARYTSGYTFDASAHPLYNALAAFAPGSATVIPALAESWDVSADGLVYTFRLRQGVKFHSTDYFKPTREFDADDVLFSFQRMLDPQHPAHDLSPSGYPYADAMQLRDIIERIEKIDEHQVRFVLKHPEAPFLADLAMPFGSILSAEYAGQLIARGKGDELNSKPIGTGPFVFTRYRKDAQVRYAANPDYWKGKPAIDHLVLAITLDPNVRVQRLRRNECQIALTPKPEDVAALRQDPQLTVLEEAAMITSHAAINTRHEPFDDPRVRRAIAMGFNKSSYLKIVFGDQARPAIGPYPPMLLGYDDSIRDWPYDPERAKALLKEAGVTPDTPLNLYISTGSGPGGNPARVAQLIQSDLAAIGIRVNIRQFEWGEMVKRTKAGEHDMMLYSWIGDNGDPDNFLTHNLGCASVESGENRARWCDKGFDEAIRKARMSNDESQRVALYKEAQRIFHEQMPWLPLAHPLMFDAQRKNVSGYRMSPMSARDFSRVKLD

[5] = target: T3, PA4500 (dppA3) (Pseudomonas aeruginosa, UniProt Q9HVS1); assay: Isothermal titration calorimetry, PA4500; assay type: binding, Pseudomonas aeruginosa PAO1; conditions: 25 °C; for Kd: read-out: KD by ITC (converted)
[6] = target: T3, PA4500 (dppA3); assay: DSF thermal shift ligand screening, PA4500; assay type: binding, Pseudomonas aeruginosa PAO1; conditions: arrays PM3B, PM6, PM7, PM8
[7] = target: T4, PA0222 (Pseudomonas aeruginosa, UniProt Q9I6R6); assay: Isothermal titration calorimetry, PA0222; assay type: binding, Pseudomonas aeruginosa PAO1; conditions: 25 °C
T4 sequence (Q9I6R6 29-352): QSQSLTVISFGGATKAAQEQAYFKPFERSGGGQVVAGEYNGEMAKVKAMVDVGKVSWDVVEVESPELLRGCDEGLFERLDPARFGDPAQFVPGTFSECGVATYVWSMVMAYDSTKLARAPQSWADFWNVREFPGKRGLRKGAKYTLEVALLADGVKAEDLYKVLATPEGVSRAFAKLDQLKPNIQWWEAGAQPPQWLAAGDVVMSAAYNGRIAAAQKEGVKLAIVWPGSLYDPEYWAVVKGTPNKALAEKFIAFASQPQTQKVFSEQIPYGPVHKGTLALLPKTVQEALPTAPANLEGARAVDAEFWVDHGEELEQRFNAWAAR

[8] = target: PA3610 (potD) (Pseudomonas aeruginosa, UniProt Q9HY16); assay: Isothermal titration calorimetry, PA3610; assay type: binding, Pseudomonas aeruginosa PAO1; conditions: 25 °C, read-out: KD by ITC (converted)
[9] = target: PA3889 (opuCC) (Pseudomonas aeruginosa, UniProt Q9HXC4); assay: Isothermal titration calorimetry, PA3889; assay type: binding, Pseudomonas aeruginosa PAO1; conditions: 25 °C
[10] = target: PA4913 (Pseudomonas aeruginosa, UniProt Q9HUQ0); assay: DSF thermal shift ligand screening, PA4913; assay type: binding, Pseudomonas aeruginosa PAO1; conditions: Tm change vs ligand-free protein
[11] = target: PA1074 (braC) (Pseudomonas aeruginosa, UniProt P21175); assay: biochemical; assay type: binding, Pseudomonas aeruginosa PAO1
PA1074 (braC), sequence (P21175 27-373): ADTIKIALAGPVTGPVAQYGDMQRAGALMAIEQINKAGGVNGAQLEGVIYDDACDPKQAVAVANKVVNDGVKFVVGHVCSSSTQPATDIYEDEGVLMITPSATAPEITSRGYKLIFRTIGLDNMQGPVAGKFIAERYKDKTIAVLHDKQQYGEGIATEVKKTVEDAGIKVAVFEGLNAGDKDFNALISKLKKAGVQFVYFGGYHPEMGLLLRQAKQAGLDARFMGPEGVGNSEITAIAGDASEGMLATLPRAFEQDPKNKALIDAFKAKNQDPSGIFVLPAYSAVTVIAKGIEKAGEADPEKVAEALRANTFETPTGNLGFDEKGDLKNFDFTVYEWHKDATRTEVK

T3 sequence (Q9HVS1 25-533): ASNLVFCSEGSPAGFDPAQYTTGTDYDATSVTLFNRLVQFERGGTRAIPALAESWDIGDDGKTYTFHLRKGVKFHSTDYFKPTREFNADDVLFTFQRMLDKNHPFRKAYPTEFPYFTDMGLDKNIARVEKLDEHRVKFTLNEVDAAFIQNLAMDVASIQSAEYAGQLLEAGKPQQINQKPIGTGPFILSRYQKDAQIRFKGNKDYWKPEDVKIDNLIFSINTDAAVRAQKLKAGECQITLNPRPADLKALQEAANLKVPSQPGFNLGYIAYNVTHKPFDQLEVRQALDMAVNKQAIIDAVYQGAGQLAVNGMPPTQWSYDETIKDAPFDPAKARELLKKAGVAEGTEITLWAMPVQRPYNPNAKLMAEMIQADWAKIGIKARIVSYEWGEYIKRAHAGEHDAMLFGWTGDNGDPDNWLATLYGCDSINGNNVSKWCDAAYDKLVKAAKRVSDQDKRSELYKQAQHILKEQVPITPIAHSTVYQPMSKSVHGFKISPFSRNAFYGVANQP
PA4913, sequence (Q9HUQ0 28-374): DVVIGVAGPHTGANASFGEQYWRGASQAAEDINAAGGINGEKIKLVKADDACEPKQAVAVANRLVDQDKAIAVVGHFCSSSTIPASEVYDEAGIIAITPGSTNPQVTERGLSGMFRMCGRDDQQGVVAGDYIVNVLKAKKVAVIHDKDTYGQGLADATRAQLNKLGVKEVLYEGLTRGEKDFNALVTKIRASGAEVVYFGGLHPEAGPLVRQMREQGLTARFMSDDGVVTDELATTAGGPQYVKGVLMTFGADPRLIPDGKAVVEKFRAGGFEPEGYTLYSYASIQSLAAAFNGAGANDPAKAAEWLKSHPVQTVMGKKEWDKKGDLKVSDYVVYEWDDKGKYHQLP
PA3610 (potD), sequence (Q9HY16 21-354): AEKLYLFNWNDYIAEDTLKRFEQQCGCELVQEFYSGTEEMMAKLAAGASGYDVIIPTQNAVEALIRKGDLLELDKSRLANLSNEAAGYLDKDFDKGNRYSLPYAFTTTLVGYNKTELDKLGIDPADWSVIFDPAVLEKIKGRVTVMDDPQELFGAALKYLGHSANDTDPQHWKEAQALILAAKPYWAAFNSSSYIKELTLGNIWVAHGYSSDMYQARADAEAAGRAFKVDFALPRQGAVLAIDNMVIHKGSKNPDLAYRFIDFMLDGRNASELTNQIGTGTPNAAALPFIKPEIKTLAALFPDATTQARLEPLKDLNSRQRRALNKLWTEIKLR
PA3889 (opuCC), sequence (Q9HXC4 24-311): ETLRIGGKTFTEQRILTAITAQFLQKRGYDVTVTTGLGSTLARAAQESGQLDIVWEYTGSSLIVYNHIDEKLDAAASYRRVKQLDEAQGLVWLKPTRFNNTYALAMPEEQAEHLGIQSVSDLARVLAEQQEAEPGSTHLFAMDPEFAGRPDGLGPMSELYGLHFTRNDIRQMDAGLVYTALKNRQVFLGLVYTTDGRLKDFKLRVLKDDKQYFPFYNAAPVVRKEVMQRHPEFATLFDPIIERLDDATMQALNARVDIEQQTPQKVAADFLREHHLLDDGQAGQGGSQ

Structure (SMILES): NCCCCN=C(N)N [Agmatine]
- Kd [1]: 15 µM
- Tm DSF (Tm increase) [2]: 5.3 °C

Structure (SMILES): C[C@H](N)C(=O)N[C@@H](C)C(=O)N[C@@H](C)C(=O)O [Ala-Ala-Ala]
- Chemotaxis ([3]; except molybdate 0.1 mM): No (Positive chemotaxis was considered when the number of bacterial cells per capillary was superior to 5000.)
- Tm DSF (Tm increase) [4]: 9.1 °C
- No Binding Observed by ITC [5]: absence of binding

Structure (SMILES): C[C@H](N)C(=O)N[C@@H](C)C(=O)O [Ala-Ala] (H-Ala-Ala-OH)
- Tm DSF (Tm increase) [6]: 11 °C and 11.3 °C
- Kd [5]: 0.21 ± 0.02 µM

Structure (SMILES): C[C@H](N)C(=O)NCC(=O)O [Ala-Gly] (H-Ala-Gly-OH)
- Chemotaxis ([3]; except molybdate 0.1 mM): No (Positive chemotaxis was considered when the number of bacterial cells per capillary was superior to 5000.)

Structure (SMILES): C[C@H](N)C(=O)N[C@@H](Cc1c[nH]cn1)C(=O)O [Ala-His] (H-Ala-His-OH; N-terminus and C-terminus assumed)
- Tm DSF (Tm increase) [6]: 3.0 °C
- Kd [5]: 7.4 µM

Structure (SMILES): C[C@H](N)C(=O)N[C@@H](Cc1ccccc1)C(=O)O [Ala-Phe]
- Tm DSF (Tm increase) [6]: 2.0 °C
- Kd [5]: 6.1 µM

Structure (SMILES): C[C@H](N)C(=O)N[C@H](C(=O)O)[C@@H](C)O [Ala-Thr] (H-Ala-Thr-OH; N-terminus and C-terminus assumed)
- Tm DSF (Tm increase) [6]: 7 °C
- Kd [5]: 0.98 µM

Structure (SMILES): CCCC(=O)O [Butyrate, butyric acid]
- No Binding Observed by ITC [7]: failed to bind

Structure (SMILES): NCCCCCN [Cadaverine]
- Kd [8]: 65 µM

Structure (SMILES): C[N+](C)(C)CCO [Choline]
- No Binding Observed by ITC [9]: no binding heats were observed

Structure (SMILES): C[C@@H](N)C(=O)O [D-Ala]
- Chemotaxis ([3]; except molybdate 0.1 mM): Yes [15, 41] Yes [15, 41] Yes [15, 41] Yes [15, 41] Yes [15, 41] Yes Yes [15, 41] n. d. (Positive chemotaxis was considered when the number of bacterial cells per capillary was superior to 5000.)
- Chemotaxis response in words ([3]; except molybdate 0.1 mM): very strong taxis
- Tm DSF (Tm increase) [10]: 6.8 °C
- No Binding Observed by ITC [11]: no binding was detected

Structure (SMILES): N[C@@H](CCC(=O)O)C(=O)N[C@@H](CCC(=O)O)C(=O)O [Glu-Glu] (H-Glu-Glu-OH)
- No Binding Observed by ITC [5]: absence of binding

Structure (SMILES): C[C@H](NC(=O)CNC(=O)CN)C(=O)O [Gly-Gly-Ala]
- Chemotaxis ([3]; except molybdate 0.1 mM): No (Positive chemotaxis was considered when the number of bacterial cells per capillary was superior to 5000.)
- Tm DSF (Tm increase) [4]: 7.6 °C

Structure (SMILES): NCC(=O)NCC(=O)NCC(=O)O [Gly-Gly-Gly] (H-Gly-Gly-Gly-OH)
- Tm DSF (Tm increase) [4]: 4.4 °C

- Tm DSF (Tm increase) [4]: 5.1 °C
Structure (SMILES): CC[C@H](C)[C@H](NC(=O)CNC(=O)CN)C(=O)O [Gly-Gly-Ile] (H-Gly-Gly-Ile-OH)

- Tm DSF (Tm increase) [4]: 3.7 °C
Structure (SMILES): NCC(=O)NCC(=O)N[C@@H](Cc1ccccc1)C(=O)O [Gly-Gly-Phe] (H-Gly-Gly-Phe-OH)

- Tm DSF (Tm increase) [4]: 6.6 °C
Structure (SMILES): NCC(=O)NC(Cc1ccccc1)C(=O)NC(Cc1ccccc1)C(=O)O (stereo not drawn) [Gly-Phe-Phe] (H-Gly-Phe-Phe-OH; configuration not given here)

Structure (SMILES): NCC(=O)NC(CO)C(=O)O (centres unmarked) [Gly-Ser]
- Chemotaxis ([3]; except molybdate 0.1 mM): Yes (Positive chemotaxis was considered when the number of bacterial cells per capillary was superior to 5000.)

Structure (SMILES): CC(C)[C@H](NC(=O)CN)C(=O)O [Gly-Val] (H-Gly-Val-OH)
- Tm DSF (Tm increase) [6]: 2.0 °C
- Kd [5]: 6.3 µM

Structure (SMILES): C[C@H](N)C(=O)O [L-Ala]
- Tm DSF (Tm increase) [10]: 12.7 °C
- Kd [11]: 210 nM
- No Binding Observed by ITC [5]: absence of binding

Structure (SMILES): N[C@@H](CCO)C(=O)O [L-Homoserine]
- Chemotaxis response, number of cells per capillary ([3]; corrected for buffer capillaries): more than 300,000 cells per capillary
- Kd [11]: 720 nM

Structure (SMILES): CC[C@H](C)[C@H](N)C(=O)O [L-Ile]
- Kd [11]: 280 nM

Structure (SMILES): CC(C)[C@H](N)C(=O)O [L-Val]
- Tm DSF (Tm increase) [10]: 4.1 °C
- Kd [11]: 70 nM

Structure (SMILES): CC(C)C[C@H](N)C(=O)NCC(=O)NCC(=O)O [Leu-Gly-Gly] (H-Leu-Gly-Gly-OH)
- Chemotaxis ([3]; except molybdate 0.1 mM): Yes (Positive chemotaxis was considered when the number of bacterial cells per capillary was superior to 5000.)
- Tm DSF (Tm increase) [4]: 3.2 °C
